Test results from ChEMBL document CHEMBL5143685, “Valorisation of the diterpene podocarpic acid - Antibiotic and antibiotic enhancing activities of polyamine conjugates” (Bioorg Med Chem, 2022).

Columns and labels:
[1] = test system: Escherichia coli; test: Antibacterial activity against Escherichia coli ATCC 25922 assessed as inhibition of bacterial growth measured after 18 hrs by resazurin dye based analysis; assay type: functional
[2] = Cytotoxicity against HEK293 cells assessed as cell growth inhibition measured after 20 hrs by resazurin dye based assay; assay type: toxicity; details: human
[3] = test system: Staphylococcus aureus; test: Antibacterial activity against methicillin-resistant Staphylococcus aureus ATCC 43300 assessed as inhibition of bacterial growth measured after 18 hrs by resazurin dye based analysis; assay type: functional
[4] = test system: Acinetobacter baumannii; test: Antibacterial activity against Acinetobacter baumannii ATCC 19606 assessed as inhibition of bacterial growth measured after 18 hrs by resazurin dye based analysis; assay type: functional
[5] = test system: Cryptococcus neoformans; test: Antifungal activity against Cryptococcus neoformans ATCC 208821 assessed as fungal growth inhibition incubated for 36 hrs by resazurin dye based analysis; assay type: functional
[6] = test system: Klebsiella pneumoniae; test: Antibacterial activity against Klebsiella pneumoniae ATCC 700603 assessed as inhibition of bacterial growth measured after 18 hrs by resazurin dye based analysis; assay type: functional
[7] = test system: Escherichia coli; test: Antibiotic adjuvant activity against Escherichia coli ATCC 25922 assessed as erythromycin MIC measured after 18 hrs in presence of erythromycin; assay type: functional
[8] = test system: Pseudomonas aeruginosa; test: Antibacterial activity against Pseudomonas aeruginosa ATCC 27853 assessed as inhibition of bacterial growth measured after 18 hrs by resazurin dye based analysis; assay type: functional
[9] = test system: Candida albicans; test: Antifungal activity against Candida albicans ATCC 90028 assessed as fungal growth inhibition incubated for 36 hrs by resazurin dye based analysis; assay type: functional
[10] = test system: Pseudomonas aeruginosa; test: Antibiotic adjuvant activity against Pseudomonas aeruginosa ATCC 27853 assessed as doxycycline MIC measured after 18 hrs in presence of doxycycline; assay type: functional

## C[C@]1(C(=O)NCCCNCCCCCCN)CCC[C@]2(C)c3cc(OC(=O)NCCCNCCCCCCN)ccc3CC[C@@H]12.O=C(O)C(F)(F)F.O=C(O)C(F)(F)F.O=C(O)C(F)(F)F.O=C(O)C(F)(F)F
[1]
  MIC: > 29.5 µM
[2]
  IC50 at 20 h: > 29.5 µM
[3]
  MIC: > 29.5 µM
[4]
  MIC: > 29.5 µM
[5]
  MIC: > 29.5 µM
[6]
  MIC: > 29.5 µM
[7]
  MIC: 50 µM
[8]
  MIC: > 29.5 µM
[9]
  MIC: > 29.5 µM

## C[C@]1(C(=O)NCCCNCCCCN)CCC[C@]2(C)c3cc(OC(=O)NCCCNCCCCN)ccc3CC[C@@H]12.O=C(O)C(F)(F)F.O=C(O)C(F)(F)F.O=C(O)C(F)(F)F.O=C(O)C(F)(F)F
[1]
  MIC: > 31.1 µM
[2]
  IC50 at 20 h: > 31.1 µM
[3]
  MIC: > 31.1 µM
[10]
  MIC: 25 µM
[4]
  MIC: > 31.1 µM
[5]
  MIC: > 31.1 µM
[6]
  MIC: > 31.1 µM
[7]
  MIC: 25 µM
[8]
  MIC: > 31.1 µM
[9]
  MIC: > 31.1 µM

## C[C@]1(C(=O)NCCCNCCCCCCCCCCCCN)CCC[C@]2(C)c3cc(OC(=O)NCCCNCCCCCCCCCCCCN)ccc3CC[C@@H]12.O=C(O)C(F)(F)F.O=C(O)C(F)(F)F.O=C(O)C(F)(F)F.O=C(O)C(F)(F)F
[1]
  MIC: ≤ 0.2 µM
[2]
  IC50 at 20 h: 0.33 µM
[3]
  MIC: ≤ 0.2 µM
[10]
  MIC: 50 µM
[4]
  MIC: 6.38 µM
[5]
  MIC: > 25.5 µM
[6]
  MIC: 12.8 µM
[8]
  MIC: > 25.5 µM
[9]
  MIC: 25.5 µM

## C[C@]1(C(=O)NCCCNCCCCCCNCCCNC(=O)[C@@]2(C)CCC[C@]3(C)c4cc(O)ccc4CC[C@@H]23)CCC[C@]2(C)c3cc(O)ccc3CC[C@@H]12.O=C(O)C(F)(F)F.O=C(O)C(F)(F)F
[1]
  MIC: 32.9 µM
[2]
  IC50 at 20 h: 28.6 µM
[3]
  MIC: 32.9 µM
[4]
  MIC: > 32.9 µM
[5]
  MIC: 32.9 µM
[6]
  MIC: > 32.9 µM
[8]
  MIC: > 32.9 µM
[9]
  MIC: 32.9 µM

## C[C@]1(C(=O)O)CCC[C@]2(C)c3cc(OC(=O)NCCCNCCCCCCCN)ccc3CC[C@@H]12.O=C(O)C(F)(F)F.O=C(O)C(F)(F)F
[1]
  MIC: > 44.7 µM
[2]
  IC50 at 20 h: > 44.7 µM
[3]
  MIC: > 44.7 µM
[4]
  MIC: > 44.7 µM
[5]
  MIC: > 44.7 µM
[6]
  MIC: > 44.7 µM
[8]
  MIC: > 44.7 µM
[9]
  MIC: > 44.7 µM

## C[C@]1(C(=O)NCCCNCCCCCCCCN)CCC[C@]2(C)c3cc(OC(=O)NCCCNCCCCCCCCN)ccc3CC[C@@H]12.O=C(O)C(F)(F)F.O=C(O)C(F)(F)F.O=C(O)C(F)(F)F.O=C(O)C(F)(F)F
[1]
  MIC: > 28 µM
[2]
  IC50 at 20 h: > 28 µM
[3]
  MIC: > 28 µM
[4]
  MIC: > 28 µM
[5]
  MIC: > 28 µM
[6]
  MIC: > 28 µM
[8]
  MIC: > 28 µM
[9]
  MIC: > 28 µM

## C[C@]1(C(=O)O)CCC[C@]2(C)c3cc(OC(=O)NCCCNCCCCCCN)ccc3CC[C@@H]12.O=C(O)C(F)(F)F.O=C(O)C(F)(F)F
[1]
  MIC: > 45.6 µM
[2]
  IC50 at 20 h: > 45.6 µM
[3]
  MIC: > 45.6 µM
[4]
  MIC: > 45.6 µM
[5]
  MIC: > 45.6 µM
[6]
  MIC: > 45.6 µM
[8]
  MIC: > 45.6 µM
[9]
  MIC: > 45.6 µM

## CCCCCNC(=O)[C@@]1(C)CCC[C@]2(C)c3cc(OC(=O)CCCNCCCCCCCCCCCCNCCCNC(=O)Oc4ccc5c(c4)[C@@]4(C)CCC[C@](C)(C(=O)NCCCCC)[C@@H]4CC5)ccc3CC[C@@H]12.O=C(O)C(F)(F)F.O=C(O)C(F)(F)F
[1]
  MIC: > 25 µM
[2]
  IC50 at 20 h: > 25 µM
[3]
  MIC: 1.56 µM
[4]
  MIC: > 25 µM
[5]
  MIC: ≤ 0.19 µM
[6]
  MIC: > 25 µM
[8]
  MIC: > 25 µM
[9]
  MIC: ≤ 0.19 µM

## C[C@]1(C(=O)O)CCC[C@]2(C)c3cc(OC(=O)NCCCNCCCCCCCCN)ccc3CC[C@@H]12.O=C(O)C(F)(F)F.O=C(O)C(F)(F)F
[1]
  MIC: > 43.8 µM
[2]
  IC50 at 20 h: > 43.8 µM
[3]
  MIC: > 43.8 µM
[4]
  MIC: > 43.8 µM
[5]
  MIC: > 43.8 µM
[6]
  MIC: > 43.8 µM
[8]
  MIC: > 43.8 µM
[9]
  MIC: > 43.8 µM

## COC(=O)[C@@]1(C)CCC[C@]2(C)c3cc(OC(=O)CCCNCCCCCCNCCCNC(=O)Oc4ccc5c(c4)[C@@]4(C)CCC[C@](C)(C(=O)OC)[C@@H]4CC5)ccc3CC[C@@H]12.O=C(O)C(F)(F)F.O=C(O)C(F)(F)F
[1]
  MIC: 14.7 µM
[2]
  IC50 at 20 h: 4.68 µM
[3]
  MIC: ≤ 0.23 µM
[4]
  MIC: > 29.4 µM
[5]
  MIC: 0.46 µM
[6]
  MIC: > 29.4 µM
[8]
  MIC: > 29.4 µM
[9]
  MIC: ≤ 0.23 µM

## C[C@]1(C(=O)NCCCNCCCCCCCN)CCC[C@]2(C)c3cc(OC(=O)NCCCNCCCCCCCN)ccc3CC[C@@H]12.O=C(O)C(F)(F)F.O=C(O)C(F)(F)F.O=C(O)C(F)(F)F.O=C(O)C(F)(F)F
[1]
  MIC: > 29.7 µM
[2]
  IC50 at 20 h: > 28.7 µM
[3]
  MIC: > 28.7 µM
[4]
  MIC: > 29.7 µM
[5]
  MIC: > 29.7 µM
[6]
  MIC: > 29.7 µM
[7]
  MIC: 50 µM
[8]
  MIC: > 29.7 µM
[9]
  MIC: > 29.7 µM

## CCCCCNC(=O)[C@@]1(C)CCC[C@]2(C)c3cc(OC(=O)CCCNCCCCCCCNCCCNC(=O)Oc4ccc5c(c4)[C@@]4(C)CCC[C@](C)(C(=O)NCCCCC)[C@@H]4CC5)ccc3CC[C@@H]12.O=C(O)C(F)(F)F.O=C(O)C(F)(F)F
[1]
  MIC: > 26.4 µM
[2]
  IC50 at 20 h: > 26.4 µM
[3]
  MIC: ≤ 0.21 µM
[4]
  MIC: > 26.4 µM
[5]
  MIC: 3.3 µM
[6]
  MIC: > 26.4 µM
[8]
  MIC: > 26.4 µM
[9]
  MIC: ≤ 0.21 µM

## C[C@]1(C(=O)NCCCNCCCCCCCNCCCNC(=O)[C@@]2(C)CCC[C@]3(C)c4cc(O)ccc4CC[C@@H]23)CCC[C@]2(C)c3cc(O)ccc3CC[C@@H]12.O=C(O)C(F)(F)F.O=C(O)C(F)(F)F
[1]
  MIC: 32.5 µM
[2]
  IC50 at 20 h: 19.1 µM
[3]
  MIC: 32.5 µM
[4]
  MIC: > 32.5 µM
[5]
  MIC: 32.5 µM
[6]
  MIC: > 32.5 µM
[8]
  MIC: > 32.5 µM
[9]
  MIC: 32.5 µM

## C[C@]1(C(=O)NCCCNCCCCCCCCCCN)CCC[C@]2(C)c3cc(O)ccc3CC[C@@H]12.O=C(O)C(F)(F)F.O=C(O)C(F)(F)F
[1]
  MIC: > 44.8 µM
[2]
  IC50 at 20 h: > 44.8 µM
[3]
  MIC: > 44.8 µM
[4]
  MIC: > 44.8 µM
[5]
  MIC: > 44.8 µM
[6]
  MIC: > 44.8 µM
[8]
  MIC: > 44.8 µM
[9]
  MIC: > 44.8 µM

## COC(=O)[C@@]1(C)CCC[C@]2(C)c3cc(OC(=O)CCCNCCCCCCCCCCCCNCCCNC(=O)Oc4ccc5c(c4)[C@@]4(C)CCC[C@](C)(C(=O)OC)[C@@H]4CC5)ccc3CC[C@@H]12.O=C(O)C(F)(F)F.O=C(O)C(F)(F)F
[1]
  MIC: > 27.3 µM
[2]
  IC50 at 20 h: > 27.3 µM
[3]
  MIC: ≤ 0.21 µM
[4]
  MIC: > 27.3 µM
[5]
  MIC: 0.43 µM
[6]
  MIC: > 27.3 µM
[8]
  MIC: > 27.3 µM
[9]
  MIC: ≤ 0.21 µM

## C[C@]1(C(=O)O)CCC[C@]2(C)c3cc(OC(=O)CCCNCCCCCCCNCCCNC(=O)Oc4ccc5c(c4)[C@@]4(C)CCC[C@](C)(C(=O)O)[C@@H]4CC5)ccc3CC[C@@H]12.O=C(O)C(F)(F)F.O=C(O)C(F)(F)F
[1]
  MIC: > 29.8 µM
[2]
  IC50 at 20 h: > 29.8 µM
[3]
  MIC: > 29.8 µM
[4]
  MIC: > 29.8 µM
[5]
  MIC: 7.45 µM
[6]
  MIC: > 29.8 µM
[8]
  MIC: > 29.8 µM
[9]
  MIC: 29.8 µM

## CCCCCNC(=O)[C@@]1(C)CCC[C@]2(C)c3cc(OC(=O)CCCNCCCCCCNCCCNC(=O)Oc4ccc5c(c4)[C@@]4(C)CCC[C@](C)(C(=O)NCCCCC)[C@@H]4CC5)ccc3CC[C@@H]12.O=C(O)C(F)(F)F.O=C(O)C(F)(F)F
[1]
  MIC: > 26.7 µM
[2]
  IC50 at 20 h: > 26.7 µM
[3]
  MIC: ≤ 0.21 µM
[4]
  MIC: > 26.7 µM
[5]
  MIC: 6.68 µM
[6]
  MIC: > 26.7 µM
[8]
  MIC: > 26.7 µM
[9]
  MIC: 1.67 µM
